According to patent US11130778B2, “CD73 inhibitors” (ORIC Pharmaceuticals, Inc., priority 2019, dated 2021):

The compounds below were run against T1, CD73 (Homo sapiens, UniProt P21589) (assay: Biochemical assay of CD73 inhibition (Malachite Green)). Conditions: CD73 0.3208 nM, AMP 15 μM, Tris-HCl pH 7.4, Malachite Green absorbance readout; read-out: CD73_Biochem.
T1 sequence (P21589 27-549): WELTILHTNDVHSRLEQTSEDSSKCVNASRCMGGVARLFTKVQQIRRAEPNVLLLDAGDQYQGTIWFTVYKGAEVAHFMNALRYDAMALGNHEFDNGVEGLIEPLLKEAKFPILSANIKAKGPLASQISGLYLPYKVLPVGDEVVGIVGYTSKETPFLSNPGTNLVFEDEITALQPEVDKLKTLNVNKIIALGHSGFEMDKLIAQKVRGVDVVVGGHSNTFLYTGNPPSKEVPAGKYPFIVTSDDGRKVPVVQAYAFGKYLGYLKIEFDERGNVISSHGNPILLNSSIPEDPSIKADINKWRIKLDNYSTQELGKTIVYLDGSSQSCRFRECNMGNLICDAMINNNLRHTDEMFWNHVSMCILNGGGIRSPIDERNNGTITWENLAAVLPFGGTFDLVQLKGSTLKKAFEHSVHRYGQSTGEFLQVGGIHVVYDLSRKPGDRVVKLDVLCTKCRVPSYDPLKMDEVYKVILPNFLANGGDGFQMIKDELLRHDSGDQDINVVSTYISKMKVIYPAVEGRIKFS
Experimental: Example A1: Biochemical Assay
Assay Reaction Conditions
• Assay Volume: 70 μl • Reaction Volume: 50 μl • CD73: 0.3208 nM • AMP:15 μM • Assay Buffer: 2 5 mM Tris-HCL, pH 7.4, 0.01% Brij-35, 0.01% BSA, 5 mM MgCl2 Assay Procedure:
Made dose titration of testing compounds in assay buffer, 10 points 1/2 log titrations in duplicates starting at 100 μM.
Added 25 µl of CD73 to each well for a final concentration of […].
Incubated at RT for 15 min.
Added 25 µl of AMP to each well for a final concentration of 15 μM.
Incubated at RT for 10 min.
Added […] of Malachite Green Reagent A, incubate at RT for 10 min.
Added […] of Malachite Green Reagent B, incubate at RT for 45 min.
Read the Absorbance on Envision plate reader using excitation filter: Cy5 […].
The ability of the compounds disclosed herein to inhibit CD73 activity was quantified and the respective IC50 values were determined. Table 2 provides the biochemical IC50 values of compounds disclosed herein.
O=P(O)(O)[C@@](CO)(COCc1nn[nH]n1)OC[C@H]1O[C@@H](n2ncc3c(NCC4CCC4)nc(Cl)nc32)[C@H](O)[C@@H]1O [Example 58, ((S)-1-((2H-tetrazol-5-yl)methoxy)-2-(((2R,3S,4R,5R)-5-(6-chloro-4-((cyclobutylmethyl)amino)-1H-pyrazolo[3,4-d]pyrimidin-1-yl)-3,4-dihydroxytetrahydrofuran-2-yl)methoxy)-3-hydroxypropan-2-yl)phosphonic acid] was tested, and the IC50 was no more than 0.01 µM. For C[C@H]1CCC[C@@H]1Nc1nc(Cl)nc2c1cnn2[C@@H]1O[C@H](COC(CO)(CO)P(=O)(O)O)[C@@H](O)[C@H]1O [Example 14, (2-(((2R,3S,4R,5R)-5-(6-chloro-4-(((1S,2S)-2-methylcyclopentyl)amino)-1H-pyrazolo[3,4-d]pyrimidin-1-yl)-3,4-dihydroxytetrahydrofuran-2-yl)methoxy)-1,3-dihydroxypropan-2-yl)phosphonic acid], the IC50 was no more than 0.01 µM. Work on O=P(O)(O)C(COCc1nnn[nH]1)(COCC1CC1)OC[C@H]1O[C@@H](n2ncc3c(NC4CCCC4)nc(Cl)nc32)[C@H](O)[C@@H]1O (stereo in doubt) [Example 45, ((S)-1-((1H-tetrazol-5-yl)methoxy)-2-(((2R,3S,4R,5R)-5-(6-chloro-4-(cyclopentylamino)-1H-pyrazolo[3,4-d]pyrimidin-1-yl)-3,4-dihydroxytetrahydrofuran-2-yl)methoxy)-3-(cyclopropylmethoxy)propan-2-yl)phosphonic acid] yielded an IC50 of no more than 0.01 µM. CC(C)Nc1nc(Cl)nc2c1cnn2[C@@H]1O[C@H](CO[C@@](CO)(Cc2nn[nH]n2)P(=O)(O)O)[C@@H](O)[C@H]1O [Example 28, ((S)-2-(((2R,3S,4R,5R)-5-(6-chloro-4-(isopropylamino)-1H-pyrazolo[3,4-d]pyrimidin-1-yl)-3,4-dihydroxytetrahydrofuran-2-yl)methoxy)-1-hydroxy-3-(2H-tetrazol-5-yl)propan-2-yl)phosphonic acid] was tested, and the IC50 was 0.01 to 0.1 µM. In the case of COCC(OC[C@H]1O[C@@H](n2ncc3c(NC4CCCC4)nc(Cl)nc32)[C@H](O)[C@@H]1O)(C(=O)O)P(=O)(O)O (stereo partly drawn) [Example 46, 2-(((2R,3S,4R,5R)-5-(6-chloro-4-(cyclopentylamino)-1H-pyrazolo[3,4-d]pyrimidin-1-yl)-3,4-dihydroxytetrahydrofuran-2-yl)methoxy)-3-methoxy-2-phosphonopropanoic acid], the IC50 is reported as no more than 0.01 µM. Work on COCC(COCc1nn[nH]n1)(OC[C@H]1O[C@@H](n2ncc3c(NC4CCCC4)nc(C#CC4CC4)nc32)[C@H](O)[C@@H]1O)P(=O)(O)O (stereo partly drawn) [Example 53, (1-((2H-tetrazol-5-yl)methoxy)-2-(((2R,3S,4R,5R)-5-(4-(cyclopentylamino)-6-(cyclopropylethynyl)-1H-pyrazolo[3,4-d]pyrimidin-1-yl)-3,4-dihydroxytetrahydrofuran-2-yl)methoxy)-3-methoxypropan-2-yl)phosphonic acid] yielded an IC50 of no more than 0.01 µM. COC[C@](CC(=O)NO)(OC[C@H]1O[C@@H](n2ncc3c(NC4CCCC4)nc(Cl)nc32)[C@H](O)[C@@H]1O)P(=O)(O)O [Example 8, ((R)-2-(((2R,3S,4R,5R)-5-(6-chloro-4-(cyclopentylamino)-1H-pyrazolo[3,4-d]pyrimidin-1-yl)-3,4-dihydroxytetrahydrofuran-2-yl)methoxy)-4-(hydroxyamino)-1-methoxy-4-oxobutan-2-yl)phosphonic acid] gave an IC50 of no more than 0.01 µM. CC(CS(C)(=O)=O)(OC[C@H]1O[C@@H](n2ncc3c(NC4CCCC4)nc(Cl)nc32)[C@H](O)[C@@H]1O)P(=O)(O)O (stereo partly drawn) [Example 57, (2-(((2R,3S,4R,5R)-5-(6-chloro-4-(cyclopentylamino)-1H-pyrazolo[3,4-d]pyrimidin-1-yl)-3,4-dihydroxytetrahydrofuran-2-yl)methoxy)-1-(methylsulfonyl)propan-2-yl)phosphonic acid] showed an IC50 of 0.01 to 0.1 µM. Work on COC[C@@](Cc1nn[nH]n1)(OC[C@H]1O[C@@H](n2ncc3c(NCC(C)C)nc(Cl)nc32)[C@H](O)[C@@H]1O)P(=O)(O)O [Example 34, ((S)-2-(((2R,3S,4R,5R)-5-(6-chloro-4-(isobutylamino)-1H-pyrazolo[3,4-d]pyrimidin-1-yl)-3,4-dihydroxytetrahydrofuran-2-yl)methoxy)-1-methoxy-3-(2H-tetrazol-5-yl)propan-2-yl)phosphonic acid] yielded an IC50 of 0.01 to 0.1 µM. Compound COCC(CC(=O)NS(=O)(=O)N(C)C)(OC[C@H]1O[C@@H](n2ncc3c(NC4CCCC4)nc(Cl)nc32)[C@H](O)[C@@H]1O)P(=O)(O)O (stereo partly drawn) [Example 22, (2-(((2R,3S,4R,5R)-5-(6-chloro-4-(cyclopentylamino)-1H-pyrazolo[3,4-d]pyrimidin-1-yl)-3,4-dihydroxytetrahydrofuran-2-yl)methoxy)-4-((N,N-dimethylsulfamoyl)amino)-1-methoxy-4-oxobutan-2-yl)phosphonic acid] has an IC50 of no more than 0.01 µM. COCCOCC(COCc1nnn[nH]1)(OC[C@H]1O[C@@H](n2ncc3c(NC4CCCC4)nc(Cl)nc32)[C@H](O)[C@@H]1O)P(=O)(O)O (single isomer, unassigned) [Example 1] was tested, and the IC50 was no more than 0.01 µM. For O=P(O)(O)[C@](CO)(COCc1nn[nH]n1)OC[C@H]1O[C@@H](n2ncc3c(NCC4CC4)nc(Cl)nc32)[C@H](O)[C@@H]1O [Example 21, ((R)-1-((2H-tetrazol-5-yl)methoxy)-2-(((2R,3S,4R,5R)-5-(6-chloro-4-((cyclopropylmethyl)amino)-1H-pyrazolo[3,4-d]pyrimidin-1-yl)-3,4-dihydroxytetrahydrofuran-2-yl)methoxy)-3-hydroxypropan-2-yl)phosphonic acid], the IC50 was no more than 0.01 µM. For O=c1[nH]c(C[C@](CO)(OC[C@H]2O[C@@H](n3ncc4c(NC5CCCC5)nc(Cl)nc43)[C@H](O)[C@@H]2O)P(=O)(O)O)no1 [Example 27, ((S)-2-(((2R,3S,4R,5R)-5-(6-chloro-4-(cyclopentylamino)-1H-pyrazolo[3,4-d]pyrimidin-1-yl)-3,4-dihydroxytetrahydrofuran-2-yl)methoxy)-1-hydroxy-3-(5-oxo-4,5-dihydro-1,2,4-oxadiazol-3-yl)propan-2-yl)phosphonic acid], the IC50 was no more than 0.01 µM. Compound O=P(O)(O)[C@@](CO)(Cc1nn[nH]n1)OC[C@H]1O[C@@H](n2ncc3c(N[C@@H]4CCc5ccccc54)nc(Cl)nc32)[C@H](O)[C@@H]1O [Example 48, ((R)-2-(((2R,3S,4R,5R)-5-(6-chloro-4-(((R)-2,3-dihydro-1H-inden-1-yl)amino)-1H-pyrazolo[3,4-d]pyrimidin-1-yl)-3,4-dihydroxytetrahydrofuran-2-yl)methoxy)-1-hydroxy-3-(2H-tetrazol-5-yl)propan-2-yl)phosphonic acid] has an IC50 of no more than 0.01 µM. O=P(O)(O)C(COCc1nnn[nH]1)(Cc1nnn[nH]1)OC[C@H]1O[C@@H](n2ncc3c(NC4CCCC4)nc(Cl)nc32)[C@H](O)[C@@H]1O (stereo in doubt) [Example 42, ((R)-1-((1H-tetrazol-5-yl)methoxy)-2-(((2R,3S,4R,5R)-5-(6-chloro-4-(cyclopentylamino)-1H-pyrazolo[3,4-d]pyrimidin-1-yl)-3,4-dihydroxytetrahydrofuran-2-yl)methoxy)-3-(1H-tetrazol-5-yl)propan-2-yl)phosphonic acid] gave an IC50 of no more than 0.01 µM. [2H]C([2H])([2H])OC[C@](COCc1nn[nH]n1)(OC[C@H]1O[C@@H](n2ncc3c(NC4CCCC4)nc(Cl)nc32)[C@H](O)[C@@H]1O)P(=O)(O)O [Example 59, ((S)-1-((2H-tetrazol-5-yl)methoxy)-2-(((2R,3S,4R,5R)-5-(6-chloro-4-(cyclopentylamino)-1H-pyrazolo[3,4-d]pyrimidin-1-yl)-3,4-dihydroxytetrahydrofuran-2-yl)methoxy)-3-(methoxy-d3)propan-2-yl)phosphonic acid] gave an IC50 of no more than 0.01 µM. For O=P(O)(O)C(COCc1nnn[nH]1)(Cc1nnn[nH]1)OC[C@H]1O[C@@H](n2ncc3c(NC4CCCC4)nc(Cl)nc32)[C@H](O)[C@@H]1O (stereo in doubt) [Example 41, ((S)-1-((1H-tetrazol-5-yl)methoxy)-2-(((2R,3S,4R,5R)-5-(6-chloro-4-(cyclopentylamino)-1H-pyrazolo[3,4-d]pyrimidin-1-yl)-3,4-dihydroxytetrahydrofuran-2-yl)methoxy)-3-(1H-tetrazol-5-yl)propan-2-yl)phosphonic acid], the IC50 was no more than 0.01 µM. Compound CC(C)Nc1nc(Cl)nc2c1cnn2[C@@H]1O[C@H](CO[C@](CO)(Cc2nn[nH]n2)P(=O)(O)O)[C@@H](O)[C@H]1O [Example 29, ((R)-2-(((2R,3S,4R,5R)-5-(6-chloro-4-(isopropylamino)-1H-pyrazolo[3,4-d]pyrimidin-1-yl)-3,4-dihydroxytetrahydrofuran-2-yl)methoxy)-1-hydroxy-3-(2H-tetrazol-5-yl)propan-2-yl)phosphonic acid] has an IC50 of no more than 0.01 µM.
